Series [1] concerns the target T1, CB1 receptors present in the brain (Mus musculus, UniProt P47746).
T1 construct: from tissue; host or cells: whole animal (brain CB1 receptors, in vivo)
The series is described as follows: Measurement (2): ex vivo [3H]-CP55940 binding assay in mouse brain after intravenous administration. The following applies: iv at 10 mg/kg, read-out: % of inhibition of the binding of [3H]-CP55940 with regard to the CB1 receptors present in the brain.

Series [2] is described as follows: Measurement (1): quantification of unchanged compound in mouse brain samples by LC-MS/MS, brain/plasma ratio. The series is classed as in vivo. To be noted: iv at 3 mg/kg, read-out: Ratio: amount present in the brain/amount present in the plasma.
Method: The low penetration of the compounds of formula (I) at the haematoencephalic barrier (HEB) was evaluated in vivo by: • Measurement (1): the quantification of the compounds of formula (I) (unchanged) in mouse brain samples after intravenous (iv, 3 mg/kg) or oral administration, using the LC-MS/MS analytical technique. • The
The target in series [3] is T1, CB1 receptors present in the brain. The series is described as follows: Measurement (3): blocking of the hypothermic effect induced by CP55940. To be noted: iv at 10 mg/kg. The series is classed as in vivo.

This note sets out measurements from patent US8410137B2, “Thiophene-2-carboxamide derivatives, preparation thereof and therapeutic use thereof” (Sanofi, priority 2008, dated 2013).

T1 sequence (P47746 whole entry): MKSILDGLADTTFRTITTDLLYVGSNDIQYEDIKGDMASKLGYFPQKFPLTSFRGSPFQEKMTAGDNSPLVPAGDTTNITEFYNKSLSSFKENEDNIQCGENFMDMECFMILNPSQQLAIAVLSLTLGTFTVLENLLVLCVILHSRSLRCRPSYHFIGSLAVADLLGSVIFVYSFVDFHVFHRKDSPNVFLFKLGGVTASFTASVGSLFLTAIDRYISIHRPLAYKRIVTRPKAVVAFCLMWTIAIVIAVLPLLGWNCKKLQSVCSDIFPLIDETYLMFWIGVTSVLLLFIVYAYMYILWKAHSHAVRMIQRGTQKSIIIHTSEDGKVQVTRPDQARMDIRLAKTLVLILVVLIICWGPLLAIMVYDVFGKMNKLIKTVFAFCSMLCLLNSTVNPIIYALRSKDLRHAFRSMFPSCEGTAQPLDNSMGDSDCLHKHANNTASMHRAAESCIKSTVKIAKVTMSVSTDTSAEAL

By inhibition is commonly meant how much of the control response was suppressed. As for `NC(=O)C1(c2ccccc2)CCN(C(=O)c2cc(-c3ccc(OCCCO)cc3)c(-c3ccc(Cl)cc3Cl)s2)CC1` [compound 8, 1-({5-(2,4-dichlorophenyl)-4-[4-(3-hydroxypropoxy)phenyl]-2-thienyl}carbonyl)-4-phenylpiperidine-4-carboxamide], the inhibition at 10 mg/kg in series [1] was 13%. The Kp in series [2] was 0.04. In addition, the “% of reversion of the hypothermic effect of CP55940 with regard to the CB1 receptors present in the brain” value in series [3] is 17.5%.
For the molecule `NC(=O)C1(c2ccccc2)CCN(C(=O)c2cc(-c3ccc(OCCCO)cc3)c(-c3ccccc3Cl)s2)CC1` [compound 45, 1-({5-(2-chlorophenyl)-4-[4-(3-hydroxypropoxy)phenyl]thien-2-yl}carbonyl)-4-phenylpiperidine-4-carboxamide], the inhibition at 10 mg/kg in series [1] stood at 32%. The “% of reversion of the hypothermic effect of CP55940 with regard to the CB1 receptors present in the brain” value in series [3] is recorded as 35.5%.
